According to patent publication US8563742B2, “Substituted aminothiazole derivatives, pharmaceutical compositions, and methods of use” (High Point Pharmaceuticals, LLC, priority 2008, dated 2013):
Where two headings read alike, the source gives them in different places.

What was measured:
[1] = Stability in Liver Microsomes (monkey); type: in vitro ADME; settings: 1 μM, 0.5 mg protein/mL, NADPH, 60 minutes, 37° C., pH 7.4
Procedure: (§1) Various compounds were tested for their stability in human, monkey, dog, rat, and mouse liver microsomes. At a final concentration of 1 μM, compounds were incubated with either human, monkey, dog, rat, or mouse liver microsomes (0.5 mg protein/mL) in the presence of an NADPH-solution for 60 minutes at 37° C., pH 7.4 in phosphate buffer. Incubations were performed in duplicate. Reactions were terminated by the addition of methanol. The incubation solution was vortexed and transferred into a 96-well plate. The plate was sealed and centrifuged at approximately 3500 rpm for approximately 10 minutes. After centrifugation, the plate was loaded into 96-well plate autosampler and analyzed by LC/MS. Values are reported as percent of compound remaining after 1 hour.

[2] = Stability in Liver Microsomes (rat); type: in vitro ADME; settings: 1 μM, 0.5 mg protein/mL, NADPH, 60 minutes, 37° C., pH 7.4
Procedure: as §1

[3] = Stability in Liver Microsomes (mouse); type: in vitro ADME; settings: 1 μM, 0.5 mg protein/mL, NADPH, 60 minutes, 37° C., pH 7.4
Procedure: as §1

[4] = Stability in Liver Microsomes (human); type: in vitro ADME; settings: 1 μM, 0.5 mg protein/mL, NADPH, 60 minutes, 37° C., pH 7.4
Procedure: as §1

[5] = Stability in Liver Microsomes (dog); type: in vitro ADME; settings: 1 μM, 0.5 mg protein/mL, NADPH, 60 minutes, 37° C., pH 7.4
Procedure: as §1

human MC-4R = biological target: T1, human MC-4R (Homo sapiens, UniProt P32245); experiment: Biological Assay: inhibition of AgRP functional interaction with MC-4R in presence of αMSH (cAMP production); type: cell-based; settings: HEK293 cells expressing human MC-4R, AgRP83-132 and αMSH present
T1 construct: expressed in transfected cells
T1 sequence (P32245 whole entry): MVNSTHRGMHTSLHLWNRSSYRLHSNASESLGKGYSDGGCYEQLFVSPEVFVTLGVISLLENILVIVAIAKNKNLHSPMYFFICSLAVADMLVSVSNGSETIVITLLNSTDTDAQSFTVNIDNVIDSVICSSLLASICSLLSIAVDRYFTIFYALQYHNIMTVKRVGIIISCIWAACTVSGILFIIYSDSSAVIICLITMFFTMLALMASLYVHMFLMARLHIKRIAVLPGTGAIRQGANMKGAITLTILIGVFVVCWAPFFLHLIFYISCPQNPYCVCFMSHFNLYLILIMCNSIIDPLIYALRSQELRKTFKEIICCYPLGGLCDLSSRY
Procedure: The following method is illustrative of techniques that may be employed to measure the ability of the compounds of Formula (I) to functionally modulate the binding of AgRP to melanocortin receptors. In particular, the assay below measures the ability of compounds of Formula (I) or pharmaceutically acceptable salts thereof to functionally modulate the binding of AgRP to MC-4R in the presence of a MC-4R agonist, such as alpha-MSH.
HEK293 cells stably expressing human MC-4R receptors were grown in high glucose Dulbecco's Modified Eagle Medium (DMEM) with 4500 mg glucose/L, L-glutamine, NaHCO3, pyrdoxin HCl, 10 mM HEPES (pH 7.4), 0.1 mM NEAA (non-essential amino acid medium) (GIBCO Cat#11140-050), 10% fetal bovine serum and 700 μg/mL G418. Cells were grown in T-225 flasks at 37° C. with CO2 and humidity control.
On the day of assay, cells were washed twice with phosphate buffered saline without calcium and magnesium (PBS) and incubated with 10 mL PBS until the cells were detached from the flask. The detached cells were centrifuged at 240 g for 5 min. The cell pellet was re-suspended in assay buffer (Earle's balanced salt solution (Sigma E3024) supplemented with 10 mM HEPES, pH 7.4, 0.5 mM IBMX and protease inhibitor cocktail (Roche, 1 complete tablet/75 mL buffer)).
The inhibitory or enhancement effect of compounds on AgRP activity was measured in a multi-component assay containing testing compounds, AgRP83-132 (human, Phoenix Pharma, cat no. 003-53), cells expressing MC-4R, and αMSH (Bachem, cat no. H-1075). Test compounds, AgRP and αMSH were diluted with assay buffer. Test compounds and AgRP were mixed to 4 times of the final concentration and incubated at room temperature for 30 min. Five μL of testing compound/AgRP solution followed with 10 μL of cells (20,000 cells/well) were added to each well of a 384-well reaction plate before 5 μL of αMSH was added. Cells were stimulated with αMSH for an additional 30 min at 37° C.
Stimulation of cells was stopped by adding a lysis buffer and cells were lysed. The intracellular concentration of cAMP may be measured by various techniques known to one of skill in the art including, but not limited to, fluorescence polarization (FP) and time-resolved fluorescence (TRF).
The inhibition was shown by an increase in MC-4R mediated cAMP production.

[6] = Pharmacokinetic screening in rats (plasma and brain); settings: rat, 5 mg/kg PO; for concentration at 2 h: male, Sprague Dawley, po, 5 mg/kg, 2 hour time point; for Brain - 24 hours AUC (h * ng/g): 24 hour study
Procedure: Pharmacokinetic screening in rats was performed on various compounds to measure brain to plasma ratio at 2 hour time point. […] The parameters for the pharmacokinetic protocol were as follows.
Amount of compound: 5 mg/kg
Species: Rat; Strain: Sprague Dawley; Sex: Male
Diet Status: Overnight fasting
Number of Animals (n) for each time point: 2
Formulation: 0.1% CMC, 0.25% Tween 80 in distilled water
Each formulation was administered once by oral gavage using a gavage needle (18G-3, BrainTree Scientific, INC, USA) attached to a syringe. The dose volume was 5 mL/kg for all animals. The actual volume administered to each animal was calculated and adjusted based on the most recent body weight.
Blood samples (approximately 300 μL whole blood) was collected from each animal via tail vein except for terminal blood samples. Terminal blood samples were collected via cardiac puncture. All samples were collected into tubes containing lithium heparin (Multivette 600 LH-Gel, Sarstedt, Newton, N.C., USA). Following collection, the tubes were placed in refrigerator (maximum 30 minutes) or until centrifugation under refrigeration (at 2 to 8° C.) at 5000 g for 7 minutes. Each harvested plasma sample was then transferred into 1.2 mL polypropylene tubes, on the 96-Well Plate according to the 96-Well Plate plasma sample map and kept in freezer. Plasma samples were then analyzed for test substances.
Brain samples were collected immediately after the rats were euthanised at designated time points. Brain samples were rinsed with saline, blotted dry, and weighed. Brain samples were placed into individual containers and kept in freezer (−20° C.). Brain samples were then analyzed for test articles.
After analysis, all the plasma results were reported as ng/mL and brain sample results are reported as ng/g.

[7] = read-out: Average EC50 (nM) in Biological Assay
[8] = plasma, Plasma - 2 hours (ng/mL)

Compound	Stability in Liver Microsomes (% remaining after 1 hour incubation) Monkey [1] [%]	Stability in Liver Microsomes (% remaining after 1 hour incubation) Rat [2] [%]	Stability in Liver Microsomes (% remaining after 1 hour incubation) Mouse [3] [%]	Stability in Liver Microsomes (% remaining after 1 hour incubation) Human [4] [%]	Stability in Liver Microsomes (% remaining after 1 hour incubation) Dog [5] [%]	EC50 (human MC-4R; [7]) [nM]	concentration at 2 h ([6]; brain, Brain - 2 hours (ng/g)) [ng/g]	concentration at 2 h [6, 8] [µg/mL]	Brain - 24 hours AUC (h * ng/g) [6]	EC50 (human MC-4R; Average EC50 (nM) in Biological Assay) [nM]
CCCC1CCC(c2csc(N(CCC(=O)O)Cc3ccc(C)s3)n2)CC1 (stereo not shown) [Example 21, 3-{(5-Methyl-thiophen-2-ylmethyl)-[4-(4-propyl-cyclohexyl)-thiazol-2-yl]-amino}-propionic acid]	47	66	86	84	78	372	–	–	–	–
Cc1ccc(CN(CCC(=O)O)c2nc(C3CCC(F)(F)CC3)cs2)s1 [Example 23, Sodium; 3-[[4-(4,4-difluoro-cyclohexyl)-thiazol-2-yl]-(5-methyl-thiophen-2-ylmethyl)-amino]-propionate]	56	15	60	71	94	366	–	–	–	–
Cc1cc(CN(CCC(=O)O)c2nc(C3CCC(C(C)(C)C)CC3)cs2)c(C)s1 (stereo not shown) [Example 25, 3-[[4-(4-tert-Butyl-cyclohexyl)-thiazol-2-yl]-(2,5-dimethyl-thiophen-3-ylmethyl)-amino]-propionic acid]	77	69	81	99	69	80	552	10.5	+++ (values between 20,000 and 10,000 h*ng/g)	–
Cc1cc(CN(CCC(=O)O)c2nc(C3CCC(C(C)C)CC3)cs2)c(C)s1 (stereo not shown) [Example 26, 3-{(2,5-Dimethyl-thiophen-3-ylmethyl)-[4-(4-isopropyl-cyclohexyl)-thiazol-2-yl]-amino}-propionic acid]	67	66	71	79	72	–	942	6.26	+++ (values between 20,000 and 10,000 h*ng/g)	276
COC1CCC(c2csc(N(CCC(=O)O)Cc3ccc(C)s3)n2)CC1 (stereo not shown) [Example 31, 3-[[4-(4-Methoxy-cyclohexyl)-thiazol-2-yl]-(5-methyl-thiophen-2-ylmethyl)-amino]-propionic acid]	88	83	91	83	94	1570	–	–	–	–
Cc1ccc(CN(CCC(=O)O)c2nc([C@H]3CC[C@H](c4ccccc4)CC3)cs2)s1 [Example 38, Sodium; 3-{(5-methyl-thiophen-2-ylmethyl)-[4-(trans-4-phenyl-cyclohexyl)-thiazol-2-yl]-amino}-propionate]	70	90	99	71	93	145	–	8.4	++++ (values above 20,000 h*ng/g)	–
Cc1cc(CN(CCC(=O)[O-])c2nc(C3CCC(c4ccccc4)CC3)cs2)c(C)s1.[Na+] (stereo not shown) [Example 40, Sodium; 3-{(2,5-dimethyl-thiophen-3-ylmethyl)-[4-(4-phenyl-cyclohexyl)-thiazol-2-yl]-amino}-propionate]	85	67	90	61	36	219	–	–	–	–
Cc1ccc(CN(CCC(=O)O)c2nc(C3CCC(C)(C)CC3)cs2)s1 [Example 55, 3-[[4-(4,4-Dimethyl-cyclohexyl)-thiazol-2-yl]-(5-methyl-thiophen-2-ylmethyl)-amino]-propionic acid]	78	64	68	49	80	70	–	–	–	–
Cc1ccc(CN(CCC(=O)[O-])c2nc(C3CCC(C4CCCCC4)CC3)cs2)s1.[Na+] (stereo not shown) [Example 60, Sodium; 3-[(4-bicyclohexyl-4-yl-thiazol-2-yl)-(5-methyl-thiophen-2-ylmethyl)-amino]-propionate]	83	86	87	92	99	191	–	–	–	–
Cc1ccc(CN(CCC(=O)[O-])c2nc(C3CCC(c4ccc(F)cc4)CC3)cs2)s1.[Na+] (stereo not shown) [Example 61, Sodium; 3-[{4-[4-(4-fluoro-phenyl)-cyclohexyl]-thiazol-2-yl}-(5-methyl-thiophen-2-ylmethyl)-amino]-propionate]	13	40	74	68	84	246	–	–	–	–
CC(C)c1ccc(-c2csc(N(CCC(=O)[O-])Cc3cccs3)n2)cc1.[Na+] [Reference Compound A, Sodium 3-{[4-(4-isopropyl-phenyl)-thiazol-2-yl]-thiophen-2-ylmethyl-amino}-propionate, reference compound]	2	54	52	40	2	–	1140	3.85	+ (values less than 5,000 h*ng/g)	–
